Measured values reported in patent publication US9765037B2, “Compositions and methods for treating toxoplasmosis, cryptosporidiosis, and other apicomplexan protozoan related diseases” (University of Washington Through its Center for …, priority 2010, dated 2017).
≈ marks a conversion by molar mass, not a printed value. Read-outs that look alike come from different tables or passages of the source.

What was measured:
[1] = Blood levels after oral gavage dosing of mice (LC-MS); conditions: mouse, in vivo, po
[2] = Solubility in buffers of various pH; assay type: physicochemical; conditions: buffer
human fibroblast = test: Human fibroblast replication / cytotoxicity (Alamar blue); assay type: cell-based
PfCDPK1 = PfCDPK1 (Plasmodium falciparum (isolate 3D7), UniProt P62344); test: biochemical
PfCDPK4 = PfCDPK4 (Plasmodium falciparum (isolate 3D7), UniProt Q8IBS5); test: biochemical
[3] = test system: human lymphocyte (CRL8155); test: Growth inhibition of human cell line CRL8155
[4] = test system: human promyelocytic leukemia (HL-60); test: Growth inhibition of human cell line HL-60
CpCDPK1 = CpCDPK1 (Cryptosporidium parvum (strain Iowa II), UniProt A3FQ16); test: biochemical; assay type: biochemical
Chain of CpCDPK1 (A3FQ16 1-538): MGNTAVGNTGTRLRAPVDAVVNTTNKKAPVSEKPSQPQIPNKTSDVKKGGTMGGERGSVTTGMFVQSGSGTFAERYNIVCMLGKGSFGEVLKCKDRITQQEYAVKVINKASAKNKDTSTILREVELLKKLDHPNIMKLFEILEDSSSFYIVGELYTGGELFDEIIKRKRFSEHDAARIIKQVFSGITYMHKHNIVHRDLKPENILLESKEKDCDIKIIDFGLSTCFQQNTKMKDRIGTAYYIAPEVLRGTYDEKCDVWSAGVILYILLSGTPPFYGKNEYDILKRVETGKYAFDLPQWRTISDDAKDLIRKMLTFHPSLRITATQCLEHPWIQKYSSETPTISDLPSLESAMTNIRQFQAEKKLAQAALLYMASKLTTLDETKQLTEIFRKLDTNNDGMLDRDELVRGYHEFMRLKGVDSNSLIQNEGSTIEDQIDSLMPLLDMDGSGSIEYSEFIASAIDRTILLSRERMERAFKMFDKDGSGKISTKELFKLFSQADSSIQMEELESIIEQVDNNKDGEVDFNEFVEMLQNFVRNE

TgCDPK1 = TgCDPK1 (Toxoplasma gondii, UniProt Q9BJF5); assay type: biochemical; conditions: read-out: TgCDPK1 IC50
Chain of TgCDPK1 (Q9BJF5 1-507): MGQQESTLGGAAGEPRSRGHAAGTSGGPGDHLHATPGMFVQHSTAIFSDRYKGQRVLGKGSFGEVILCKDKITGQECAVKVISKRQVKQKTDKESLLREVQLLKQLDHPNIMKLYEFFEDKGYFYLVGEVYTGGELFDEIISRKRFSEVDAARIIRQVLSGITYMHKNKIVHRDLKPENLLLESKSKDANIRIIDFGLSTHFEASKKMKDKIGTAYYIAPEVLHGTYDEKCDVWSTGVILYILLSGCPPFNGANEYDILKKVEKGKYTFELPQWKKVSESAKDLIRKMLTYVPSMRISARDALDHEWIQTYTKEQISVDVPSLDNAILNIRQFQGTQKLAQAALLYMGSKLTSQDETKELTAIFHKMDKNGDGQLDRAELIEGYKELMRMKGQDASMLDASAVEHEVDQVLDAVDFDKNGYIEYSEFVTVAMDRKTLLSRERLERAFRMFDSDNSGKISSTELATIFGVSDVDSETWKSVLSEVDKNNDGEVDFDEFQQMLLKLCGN

[5] = test system: colorectal carcinoma (HC 2998); test: Growth inhibition of human cell line HC 2998
glioma derived (SF539) = test: Growth inhibition of human cell line SF539
HckKD = HckKD (Homo sapiens (Human), UniProt P08631); test: Tyrosine kinase IC50, HckKD; assay type: biochemical; conditions: Table 9
Chain of HckKD (P08631 262-515): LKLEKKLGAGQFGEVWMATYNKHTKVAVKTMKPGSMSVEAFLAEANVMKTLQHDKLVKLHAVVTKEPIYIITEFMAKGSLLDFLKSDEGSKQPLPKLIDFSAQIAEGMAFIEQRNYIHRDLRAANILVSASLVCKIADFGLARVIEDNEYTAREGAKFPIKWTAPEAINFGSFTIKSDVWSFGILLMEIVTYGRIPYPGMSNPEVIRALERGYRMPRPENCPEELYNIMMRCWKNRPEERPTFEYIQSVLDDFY

[6] = aqueous buffer, pH 2.0, read-out: Experimental Solubility pH 2.0
[7] = pH 6.5, aqueous buffer, read-out: Experimental Solubility pH 6.5
[8] = pH 7.4, aqueous buffer, read-out: Experimental Solubility pH 7.4

Compound	solubility [2, 7] [µM]	Observed HFF Toxicity (T at concentration) (human fibroblast)	EC50 (PfCDPK1) [nM]	EC50 (PfCDPK4) [nM]	Cell Toxicity CRL8155, % at 10 μM [3]	Cell Toxicity HL60, % at 10 μM [4]	Cell Toxicity HCC2998, % at 10 μM [5] [% at 10 μM]	Cell Toxicity SF539, % at 10 μM (glioma derived (SF539)) [% at 10 μM]	further results
CC(C)COc1ccc2cc(-c3nn(CC4CCNCC4)c4ncnc(N)c34)ccc2c1 [Compound 44, 3-(6-isobutoxynaphthalen-2-yl)-1-(piperidin-4-ylmethyl)-1H-pyrazolo[3,4-d]pyrimidin-4-amine]	38 (≈ 16.4 µg/mL)	T at 100 μM	182	58.3					AUC [1]: 2.47 µM·h; Cmax [1]: 0.95 µM; Tmax [1]: 3 h; solubility [2, 6]: 47 µM (≈ 20.2 µg/mL); solubility [2, 8]: 33 µM (≈ 14.2 µg/mL)
Nc1ncnc2c1c(-c1ccc3cc(OCc4cccc(Cl)c4)ccc3c1)nn2CC1CCNCC1 [Compound 38, 3-(6-(3-chlorobenzyloxy)naphthalen-2-yl)-1-(piperidin-4-ylmethyl)-1H-pyrazolo[3,4-d]pyrimidin-4-amien]		T at 100 μM	45.2	34.9	<30% at 10 μM	<30% at 10 μM			Cell Toxicity CRL8155, % at 30 μM [3]: 98% at 30 μM; Cell Toxicity HL60, % at 30 μM [4]: 98% at 30 μM
Nc1ncnc2c1c(Cc1cccc3ccccc13)nn2C1CCNCC1 [Compound 5g, 3-(naphthalen-1-ylmethyl)-1-(piperidin-4-yl)-1H-pyrazolo[3,4-d]pyrimidin-4-amine]					<30% at 10 μM	<30% at 10 μM	<30	<30	IC50 (CpCDPK1; read-out: IC50 (μM) CpCDPK1): 0.056 µM; IC50 (TgCDPK1): 59 nM
CCOc1ccc2cc(-c3nc(C(C)(C)C)n4ccnc(N)c34)ccc2c1 [Compound 69, 3-tert-butyl-1-(6-ethoxynaphthalen-2-yl)imidazo[1,5-a]pyrazin-8-amine]	3 (≈ 1.08 µg/mL)	T at 25 μM	198	132	<30% at 10 μM	<30% at 10 μM			
CC(C)(C)n1nc(-c2ccc3ccccc3c2)c2c(N)ncnc21 [Compound 2, 1-tert-butyl-3-(naphthalen-2-yl)-1H-pyrazolo[3,4-d]pyrimidin-4-amine]	2.4 (≈ 0.762 µg/mL)		1250	480					solubility [2, 6]: 43 µM (≈ 13.6 µg/mL); solubility [2, 8]: 1.5 µM (≈ 0.476 µg/mL); Cell Toxicity CRL8155, % at 25 μM [3]: 37% at 25 μM;; Cell Toxicity CRL8155, % at 30 μM [3]: <30% at 30 μM; Cell Toxicity HCC2998, % at 25 μM [5]: <30% at 25 μM; Cell Toxicity SF539, % at 25 μM (glioma derived (SF539)): <30% at 25 μM; Cell Toxicity HL60, % at 25 μM [4]: <30% at 25 μM;; Cell Toxicity HL60, % at 30 μM [4]: <30% at 30 μM
CC(C)n1nc(Cc2cccc3ccccc23)c2c(N)ncnc21 [Compound 3, 1-isopropyl-3-(naphthalen-1-ylmethyl)-1H-pyrazolo[3,4-d]pyrimidin-4-amine]					<30% at 10 μM	<30% at 10 μM	<30	<30	IC50 (HckKD): 1.38 µM
Nc1ncnc2c1c(-c1ccc3oc(-c4ccccc4)nc3c1)nn2CC1CCNCC1 [Compound 120]	44 (≈ 18.7 µg/mL)	T at 25 μM	25.5	214					
CC(C)Oc1ccc2cc(-c3nn(CC4CCNCC4)c4ncnc(N)c34)ccc2c1 [Compound 32, 3-(6-isopropoxynaphthalen-2-yl)-1-(piperidin-4-ylmethyl)-1H-pyrazolo[3,4-d]pyrimidin-4-amine]			365	55.4					IC50 (HckKD): > 10 µM
Nc1ncnc2c1c(-c1ccc3cc(OCc4ccccc4Cl)ccc3c1)nn2CC1CCNCC1 [Compound 37, 3-(6-(2-chlorobenzyloxy)naphthalen-2-yl)-1-(piperidin-4-ylmethyl)-1H-pyrazolo[3,4-d]pyrimidin-4-amine]		T at 100 μM	95.8	71.6					
CCCOc1ccc2cc(-c3nn(C(C)C)c4ncnc(N)c34)ccc2c1 [Compound 12, 1-isopropyl-3-(6-propoxynaphthalen-2-yl)-1H-pyrazolo[3,4-d]pyrimidin-4-amine]			659	526	<30% at 10 μM	<30% at 10 μM	<30	<30	IC50 (HckKD): 0.244 µM
CCCCOc1ccc2cc(-c3nn(C(C)C)c4ncnc(N)c34)ccc2c1 [Compound 42, 3-(6-butoxynaphthalen-2-yl)-1-isopropyl-1H-pyrazolo[3,4-d]pyrimidin-4-amine]	4.4 (≈ 1.65 µg/mL)	T at 100 μM	156	308					AUC [1]: 40.6 µM·h; Cmax [1]: 10.7 µM; Tmax [1]: 2.67 h
CS(=O)(=O)N1CCC(n2nc(Cc3cccc4ccccc34)c3c(N)ncnc32)CC1 [Compound 5p, 1-(1-(methylsulfonyl)piperidin-4-yl)-3-(naphthalen-1-ylmethyl)-1H-pyrazolo[3,4-d]pyrimidin-4-amine]									Cell Toxicity CRL8155, % at 25 μM [3]: <30% at 25 μM; Cell Toxicity HCC2998, % at 25 μM [5]: <30% at 25 μM; Cell Toxicity SF539, % at 25 μM (glioma derived (SF539)): <30% at 25 μM; Cell Toxicity HL60, % at 25 μM [4]: <30% at 25 μM
CC(C)n1nc(-c2cnc3ccccc3c2)c2c(N)ncnc21 [Compound 7t, 1-isopropyl-3-(quinolin-3-yl)-1H-pyrazolo[3,4-d]pyrimidin-4-amine]			1360	169	<30% at 10 μM	<30% at 10 μM	<30	<30	
CCN1CCC(Cn2nc(Cc3cccc4ccccc34)c3c(N)ncnc32)CC1 [Compound 5n, 1-((1-ethylpiperidin-4-yl)methyl)-3-(naphthalen-1-ylmethyl)-1H-pyrazolo[3,4-d]pyrimidin-4-amine]					<30% at 10 μM	<30% at 10 μM	<30	<30	
CC(C)Oc1ccc2cc(-c3nn(C(C)C)c4ncnc(N)c34)ccc2c1 [Compound 11, 3-(6-isopropoxynaphthalen-2-yl)-1-isopropyl-1H-pyrazolo[3,4-d]pyrimidin-4-amine]			373	549	<30% at 10 μM	<30% at 10 μM	<30	<30	IC50 (HckKD): 0.541 µM
CC(C)n1nc(-c2ccc3ccccc3c2)c2c(N)ncnc21 [Compound 7p, 1-isopropyl-3-(naphthalen-2-yl)-1H-pyrazolo[3,4-d]pyrimidin-4-amine]			380	142		35% at 10 μM		54	Cell Toxicity CRL8155, % at 25 μM [3]: 46% at 25 μM; GI50 ([3]; read-out: GI50 (μM) CRL8155, human cell line CRL8155): > 10 µM; Cell Toxicity HCC2998, % at 25 μM [5]: <30% at 25 μM; GI50 ([5]; read-out: GI50 (μM) HCC2998, human cell line HCC2998): ~10 µM; Cell Toxicity SF539, % at 25 μM (glioma derived (SF539)): 84% at 25 μM;; GI50 (glioma derived (SF539); read-out: GI50 (μM) SF539, human cell line SF539): > 10 µM; Cell Toxicity HL60, % at 25 μM [4]: 50% at 25 μM;; GI50 ([4]; read-out: GI50 (μM) HL60, human cell line HL60): > 10 µM
CC(C)n1nc(-c2ccc3cc(OCc4ccccc4)ccc3c2)c2c(N)ncnc21 [Compound 40, 3-(6-(benzyloxy)naphthalen-2-yl)-1-isopropyl-1H-pyrazolo[3,4-d]pyrimidin-4-amine]		T at 100 μM	96.3	514					
CCOc1ccc2cc(-c3nn(C(C)C)c4ncnc(N)c34)ccc2c1 [Compound 7r, 3-(6-ethoxynaphthalen-2-yl)-1-isopropyl-1H-pyrazolo[3,4-d]pyrimidin-4-amine]	12 (≈ 4.17 µg/mL)		1290	429	<30% at 10 μM	<30% at 10 μM	<30	<30	IC50 (CpCDPK1; read-out: CpCDPK1 IC50): 0.012 µM; IC50 (HckKD): 0.218 µM
Nc1ncnc2c1c(Cc1cccc3ccccc13)nn2CCC1CCNCC1 [Compound 5i, 3-(naphthalen-1-ylmethyl)-1-(2-(piperidin-4-yl)ethyl)-1H-pyrazolo[3,4-d]pyrimidin-4-amine]				603	<30% at 10 μM;	<30% at 10 μM;	<30	<30	IC50 (CpCDPK1; read-out: CpCDPK1 IC50): 0.034 µM; Cell Toxicity CRL8155, % at 30 μM [3]: <30% at 30 μM; IC50 (TgCDPK1): 52 nM; Cell Toxicity HL60, % at 30 μM [4]: <30% at 30 μM
